Experimental data reported in patent US20250144087A1, “USE OF VE607 FOR THE TREATMENT OF SARS-COV-2 INFECTIONS AND RELATED DISEASES” (priority 2022, published 2025).

Experiments:
[1] = tested on: pseudoviral particles expressing the Spike from SARS-CoV-2; assay: microbe, parasite or virus in culture; format: cell-based; conditions: SARS-CoV-2 D614G pseudovirus
[2] = molecular target: interaction of sACE2 with the full SARS-CoV-2 Spike expressed at the cell surface (Severe acute respiratory syndrome coronavirus 2, UniProt P0DTC2, D614G); format: binding
[3] = molecular target: SARS-CoV-2 Spike (Severe acute respiratory syndrome coronavirus 2, UniProt P0DTC2, D614G); format: cell-based
[4] = tested on: pseudoviral particles bearing the Spike glycoproteins from the major VOCs (Alpha, Beta, Gamma, Delta and Omicron); format: cell-based, SARS-CoV-2
[5] = tested on: SARS-CoV-2 D614G Spike Y505T pseudoviral particles; format: cell-based
[6] = tested on: SARS-CoV-2 D614G Spike Q498V pseudoviral particles; format: cell-based
[7] = tested on: authentic SARS-CoV-2 D614G; format: cell-based

SMILES: O[C@H](COc1cccc(OC[C@@H](O)CN2CCCCC2)c1)CN1CCCCC1 [(S,S)-VE607, (2S,2'S)-3,3′-(1,3-phenylenebis(oxy))bis(1-(piperidin-1-yl)propan-2-ol)]
- capacity to neutralize SARS-CoV-2 pseudovirus particles compared with commercially available VE607 [1]: same capacity as commercially available VE607

SMILES: O[C@@H](COc1cccc(OC[C@H](O)CN2CCCCC2)c1)CN1CCCCC1 [(R,R)-VE607, (2R,2′R)-3,3′-(1,3-phenylenebis(oxy))bis(1-(piperidin-1-yl)propan-2-ol)]
- capacity to neutralize SARS-CoV-2 pseudovirus particles compared with commercially available VE607 [1]: same capacity as commercially available VE607

SMILES: C=CCC(/C=C/OCC(O)CN(CC)CCC)OCC(O)CN(CC)CCC (centres unmarked) [VE607]
- competition with sACE2 for interaction with Spike [2]: no competition
- S1 shedding / trimer stability [3]: decrease shedding
- IC50 values [4]: low micromolar range
- IC50 [5]: > 40000 nM
- IC50 [6]: 1800 nM
- IC50 [7]: 2420 nM
